Results published in article PMC5665932, “A novel peptide that improves metabolic parameters without adverse central nervous system effects” (Scientific Reports, 2017).

Experiments:
UCP1 = UCP1 expression in 3T3-L1 differentiated adipocytes (Western blot); type: cell-based; details: for expression of UCP1 in 3T3-L1 adipose cells: 24 h treatment
Procedure: 3T3-L1 pre-adipocytes (American Type Culture Collection, Rockville, MD, USA) were cultured in complete medium comprising of DMEM (Dulbecco’s Modified Eagle Medium), containing 10% fetal bovine serum (Life Technologies, Carlsbad, CA, USA), 0.11 mg/mL pyruvate, 0.025 g/L penicillin (Sigma-Aldrich, Saint Louis, MO, USA) and 0.1 g/L streptomycin (Life Technologies, Carlsbad, CA, USA) at 37 °C and 5% CO2. For the experiments analyzing UCP1 expression, 3T3-L1 cells were seeded in 12-well plates at a confluence of 10 × 10^4 cells/mL/well. One day later, cells were differentiated using normal culture medium supplemented with 500 μM isobutylmethylxanthine (Sigma, St. Louis, MO, USA), 1 μM dexamethasone (Sigma, St. Louis, MO, USA), and 0.85 μg/mL bovine insulin (Sigma, St. Louis, MO, USA). After three days, the differentiation medium was changed to normal culture medium supplemented with 0.85 μg/mL bovine insulin. The fresh medium was renewed every 2 days. After 12 days of differentiation, cells were exposed for 24 h with either 5 µM rosiglitazone (RSG, Sigma, St. Louis, MO, USA), HP or Pep19 at different concentrations or with vehicle (normal culture medium plus protease inhibitor cocktail (Roche, Germany). Subsequent experiments were performed after preincubation for 2 min with and in the absence of either 5 µM rosiglitazone, 1 µM […], 1 µM AM251, 1 µM HP or vehicle (normal culture medium plus protease inhibitor cocktail (Roche, Germany) with subsequent addition of 1 µM Pep19 in medium. For Western-blot assays, cells were washed twice with ice-cold PBS, the supernatant was removed, and cells were lysed with 40 µL Laemmli buffer, transfered to tubes, sonicated and heated 95 °C during 5 min. Samples were kept at −20 °C till use. Before using, samples were thawed on ice, centrifuged, and proteins were separated on a 12% SDS-PAGE, followed by transfer to PVDF membranes (Merck Millipore, Darmstadt, Germany). […] Bands were visualized with Super-Signal West Pico Chemiluminescent substrate (Thermo Scientific) and quantified using ImageJ 1.49.

DIO Wistar rats [1] = assay: Diet-induced obesity model: body weight, food intake, adipose tissue masses, adiposity index; type: in vivo; details: oral by gavage, 100 µg/Kg, mean ± SEM
Procedure: (§1) For the diet-induced obesity (DIO) model, male Wistar rats received instead of water a 20% sucrose solution for 13 consecutive weeks. All animals including controls received food ad libitum. Pep19 was administrated orally by gavages. After 13 weeks of treatment all rats were sacrificed by decapitation (after overnight fasting). Blood from the trunk was collected into tubes without anticoagulants and immediately centrifuged (3000 x g for 15 min at 4 °C), and serum was stored at −20 °C. Blood serum was used for all biochemical determinations. The adipose tissues masses were used to calculate the adiposity index (the percentage of the sum of all white adipose tissue pads in relation to total body weight).

Male Wistar rats = assay: Forced swim test; type: in vivo; details: first 5 min of the swim test, n = 6/group (Pep19), n = 8–10/group (rimonabant)
Procedure: The forced swim test was based on previous designs. Male Wistar rats were placed in a cylindrical plexiglass tank (50 cm high and 30 cm diameter) filled with water (19 °C) up to a level of 25 cm from the bottom. The animal’s behavior during the first 5 min of the swim test was scored by a trained observer and the following measures were taken: (1) time spent swimming, defined as movements of all four limbs, swimming around the tank or diving and (2) time spent floating, defined as the time the animal remained immobile with only occasional slight movements to keep the body balanced and the nose above the water.

DIO Wistar rats [2] = assay: Diet-induced obesity model: serum/blood biochemical determinations; type: in vivo; details: oral by gavage, 100 µg/Kg, mean ± SEM
Procedure: as §1
Serum cholesterol and triglycerides were quantified enzymatically using commercial kits from Labtest Diagnóstica (Triglicerides Liquiform andLiquiform, Lagoa Santa, MG, Brazil). Insulin levels were determined using specific rat radioimmunoassay kits (Millipore Corporation, Billerica, MA, USA). Blood glucose concentration was measured by a glucometer (Advantage, Roche Diagnostics Corporation, Indianapolis, USA).

C57BL/6J mice = assay: Tetrad cannabinoid tests (catalepsy, tail temperature, locomotor activity, hot plate); type: in vivo; details: n = 6/group
Procedure: C57BL/6J mice were treated i.p. with Pep19 (0.1 or 1 mg/kg), the CB1R agonist WIN55,212-2 (5 mg/kg) or vehicle (n = 6 per group) and evaluated in the tetrad cannabinoid tests. Another group of animals received Pep19 (0.1 or 1 mg/kg) or saline i.p. for 10 days, once a day. In the last day of treatment the animals were subjected to the tetrad cannabinoid tests 30 minutes after the i.p. administration. The CB1 agonist WIN55,212-2 (5 mg/kg) was administrated i.p. 30 minutes before the experiments as a positive control (n = 6 per group).
It was assayed by the bar test[40], 30 min after drug administration. Briefly, each mouse was placed on a bar oriented parallel to and approximately 4 cm above the bench surface. Cataleptic behavior was defined as the time the animal remained motionless holding on to the bar; cutoff = 300 s[41].
It was determined by using a thermal probe (Thermocom®, Nashua, NH 03062, EUA) positioned 50 cm of the animal. The mean of five pictures of five different tail regions was compared between a basal evaluation and another observation 35 min after drug administration.
It was determined by an open field test, in which a mouse was placed in a circular cage (40 cm diameter), 37 min after drug administration. The distance traveled by the animal was recorded for 10 min by the software ANY-MAZE (Stoelting).
The mouse was placed on a heated plate at 56 °C. An experimenter measured the time it took for the mouse to lick the paws or jump off of the hot plate; cutoff = 30 s[42]. The variation between a basal evaluation and another one taken 45 min after drug administration was defined as the result.

c-Fos = assay: Mice brain c-Fos protein immunohistochemistry; type: in vivo; details: 1 mg/kg administrated orally, two hours post administration, C57BL/6J mice, vs vehicle (water), n = 3/group
Procedure: Mice C57BL/6J (25 ± 2 g; n = 3 per group) were assigned randomly to receive gavage (v.o.) of either vehicle (water), or 1 mg/kg body weight HP or 1 mg/kg Pep19. All solutions were prepared minutes before use. Two hours post administrations mice were deeply anaesthetized with ketamine and xylazine (i.p.; […], respectively) and perfused transcardially with heparinised saline (5000 UI/kg) in phosphate buffer (PB 0.1 M, pH 7.3) followed by 4% paraformaldehyde in PB 0.1 M. The brains were post fixed and kept in 30% sucrose in 0.1 M PB to cryoprotect the tissue. […]
The regions of interest were identified based on a stereotaxic atlas[45]: arcuate hypothalamic nucleus (Arc), ventromedial hypothalamic nucleus (VMN), periaqueductal grey (PAG), orbitofrontal cortex (VO), accumbens nucleus (Acb). The corresponding images were captured using a Nikon Eclipse E800, camera DC-F1 with Nis Element program. cFos positive cells per section were counted manually using ImageJ (NIH/USA). Results are are expressed as the means ± standard error of the mean (SEM) of c-Fos immunoreactive cells per section in each brain area (5 sections/brain/structure). […] Data were statistically analyzed with GraphPad Prism software (GraphPad Software Inc, San Diego, CA, USA).

Q: For `Cc1c(C(=O)NN2CCCCC2)nn(-c2ccc(Cl)cc2Cl)c1-c1ccc(I)cc1` [AM251], which “effect on UCP1 activation by Pep19” value (UCP1; 1 µM, preincubation 2 min, then Pep19 1 µM for 24 h, 3T3-L1 adipocyte cells) is on record?
A: prevented UCP1 activation by Pep19

Q: `CN(CCOc1ccc(CC2SC(=O)NC2=O)cc1)c1ccccn1` (stereo not shown) [RSG, Rosiglitazone] was tested. Which “expression of UCP1 in 3T3-L1 adipose cells” value (UCP1; 5 µM, positive control) did it give?
A: increased the expression of UCP1

Q: Which results are given for `Cc1c(C(=O)NN2CCCCC2)nn(-c2ccc(Cl)cc2Cl)c1-c1ccc(Cl)cc1` [Rimonabant]?
A: Body weight (% of control day zero) (DIO Wistar rats [1]): 111 ± 1.0 (n = 10) % of control day zero; Gonadal Adipose Tissue weight (DIO Wistar rats [1]): 1.75 ± 0.1 (n = 10) g; Mesenteric Adipose Tissue weight (DIO Wistar rats [1]): 0.86 ± 0.1 (n = 9) g; Retroperitoneal Adipose Tissue weight (DIO Wistar rats [1]): 2.10 ± 0.1 (n = 10) g; Adiposity Index (total/100 g) (DIO Wistar rats [1]; percentage of the sum of all white adipose tissue pads in relation to total body weight): 5.85 ± 0.2 (n = 9) total/100 g; forced swim test: time spent swimming and time spent floating (Male Wistar rats): affected both time spent swimming (empty bars) and time spent floating; Glucose level (DIO Wistar rats [2]; glucometer): 118.3 ± 4.2(n = 9) mg/dl; Cholesterol (% of control day zero) (DIO Wistar rats [2]; serum): 98.51 ± 5.8 (n = 9) % of control day zero; Triacylglycerol (% of control day zero) (DIO Wistar rats [2]; serum): 112 ± 7.7 (n = 10) % of control day zero; Insulin (DIO Wistar rats [2]; serum, radioimmunoassay): 2.71 ± 0.8 (n = 5) ng/mL

Q: Which results are given for `Cc1c(C(=O)c2cccc3ccccc23)c2cccc3c2n1[C@H](CN1CCOCC1)CO3` [WIN55,212–2]?
A: cannabinoid tetrad, positive control of the chronic experiment (C57BL/6J mice; 5 mg/kg i.p. 30 minutes before the experiments, P<0.05): affected all parameters evaluated; cannabinoid tetrad (catalepsy, hot plate, locomotor activity, tail temperature) (C57BL/6J mice; 5 mg/kg i.p., positive control, p < 0.05): affected all the parameters evaluated

Q: For “PVNFKFLSH [HP, Hemopressin, …, inverse agonist of cannabinoid type 1 receptors]”, which “number of cFos positive cells in brain areas (Arc, VMN, PAG, VO, Acb)” value (c-Fos) is on record?
A: increased the number of cFos positive cells in Arc, VMN and PAG

Q: What about the “expression of UCP1 in 3T3-L1 adipose cells” value (UCP1; 0.1–10 µM, GAPDH loading control) of the same molecule?
A: increased the expression of UCP1
